Test results reported in publication PMC12256496, “An advancement in developmental and reproductive toxicity (DART) risk assessment: evaluation of a bioactivity and exposure-based NAM toolbox” (Frontiers in Toxicology, 2025).
In brackets after ≈: the same amount, converted by molar mass. Like-named read-outs stand apart in the source and are kept apart here.

Legend:
[1] = ref Supplementary Data Sheet 1, cited from earlier work
[2] = Solubility pH 5.04; ref [1]; cited from earlier work
[3] = design: method as in earlier work; settings: ref [3]; cited from earlier work
[4] = test system: human developmental and reproductive toxicity; settings: ref Supplementary Data Sheet 1, cited from earlier work
[5] = ref [2]; cited from earlier work
[6] = test system: developmental or reproductive toxicity in animal or human; settings: evidence of developmental or reproductive toxicity in animal or human, irrespective of exposure/dose; ref Supplementary Data Sheet 1; cited from earlier work
[7] = existent consumer risk assessment for the cosmetic use scenario; ref SCCS / SCCP / SCCNFP; cited from earlier work
[8] = renal clearance, Fup*GFR (PBK parameter); settings: method Fup*GFR
[9] = test system: serotonin receptor HTR2B; assay: IPP: serotonin receptor HTR2B binding; settings: low-risk exposure scenario
From the text: In vitro pharmacological profiling is used to measure specific and high affinity non-covalent binding interactions between chemicals of interest and various targets with known safety liabilities. These targets include G protein coupled receptors (GPCRs), nuclear hormone receptors (NHRs), ion channels and enzymes. For this evaluation we included 72 targets of interest a full list of which is available in Supplementary Data Sheet 5, across a range of radioligand binding, enzymatic and protein-protein interaction assays run in binding mode only.
The process for deriving a PoD for each of the 72 targets consisted of a two-step method that has been widely adopted when conducting in vitro pharmacological profiling experiments ([Brennan et al., 2024]). […] Targets showing an inhibition or stimulation greater than 50% of a maximal response produced by a reference compound are followed up in a second phase which includes an eight-point concentration response (in two replicates). […] EC50 values (concentration producing a half-maximal response) and IC50 values (concentration causing a half-maximal inhibition of the control agonist response) were determined by the Bayesian probabilistic model of the concentration-response curves and the Hill equation as per ([Labelle et al., 2019]). […] Calculated IC50s were taken forwards as the IPP PoDs ([Middleton et al., 2022]). […]

[10] = unbound fraction in plasma, fup (PBK parameter); type: in vitro ADME; settings: optimised based on [13]
[11] = hepatic intrinsic clearance, CLint (PBK parameter); type: in vitro ADME
[12] = water solubility (PBK parameter); type: physicochemical; settings: Solubility pH 6.99, optimised based on [13], read-out: Aqueous Solubility
[13] = Human in vivo PK data: concentration-dose ratio (CDR) and toxicokinetic variability factor (TKVF);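 also: Literature-pooled human in vivo PK data, plasma, serum or cord blood concentrations per daily dose, weighted by study population size across non-pregnant, pregnant and fetal groups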
[14] = test system: rats; settings: ref Supplementary Data Sheet 1, cited from earlier work
[15] = ref PubChem; cited from earlier work
[16] = test system: mice; design: method as in Supplementary Data Sheet 1; settings: ref Supplementary Data Sheet 1; cited from earlier work
[17] = Bioactivity exposure ratio (BER): minimum platform PoD / estimated Cmax; settings: low-risk scenario of normal dietary exposure to retinol and its metabolite
[18] = test system: pigtail monkeys; design: method as in Supplementary Data Sheet 1; settings: the only dose tested, ref Supplementary Data Sheet 1; cited from earlier work
[19] = test system: hamsters; design: method as in Supplementary Data Sheet 1; settings: ref Supplementary Data Sheet 1; cited from earlier work

Nc1cc([N+](=O)[O-])cc(Cl)c1O [2-Amino-6-chloro-4-nitrophenol]
NOAEL for maternal toxicity [1]: 30 mg/kg bw
Aqueous Solubility [2]: 450000 µg/mL
Peff [3]: 7.96 cm/s x E-04
Exposure risk (DART risk classification) ([4]; Cosmetic, 2% in hair colourant, dermal): Low Risk
Fup [5]: 0.47%
DART Hazard Call [6]: Non Toxic
MoS [7]: Used safely in cosmetic products. Existent consumer risk assessment from the SCCP. MoS >400.
Renal Clearance [8]: 0.034 L/h

CCOC(=O)c1ccccc1C(=O)OCC [Diethyl phthalate (DEP), Diethyl phthalate]
BER from binding to the serotonin receptor HTR2B [9]: < 1
MoS [7]: Used safely in cosmetic products. Existent safety assessment from the SCCNFP. MoS 161

Cc1cc(C(C)(C)C)c(O)c(C(C)(C)C)c1 [Butylated hydroxytoluene (BHT), Butylated hydroxytoluene]
offspring NOAEL ([1]; OECD 416, effects on litter size, sex ratio and pup body weight gain): OECD 416: 0, ~25, ~100 and ~280 mg/kg/day. Effects on offspring. Offspring NOAEL of 25 mg/kg bw/day based on effects on litter size, sex ratio and pup body weight gain.
Fup [10]: 0.33%
Intrinsic Liver Clearance ([11]; optimised based on [13]): 22540.4 L/h
MoS [7]: Used safely in cosmetic products. Existent consumer risk assessment from the SCCS. MoS >3000.
solubility [12]: 5 µg/mL (≈ 22.7 µM)
Renal Clearance [8]: 0.02382 L/h
TKVF ([13]; Non-Pregnant, oral): 2.5

CCCCC(CC)C(=O)O (centres unmarked) [2-Ethylhexanoic acid (2-EHA), 2-Ethylhexanoic acid]
developmental NOAEL ([14]; 2 rat studies, clubfoot/reduced skeletal ossification): 100 mg/kg bw/day
NOAEL for parental effects ([14]; EOGRT in rats): 250 mg/kg bw/d
Intrinsic Liver Clearance ([11]; optimised based on [16]): 7.128 L/h
Renal Clearance [8]: 0.008 L/h
pKa Value ACID [15]: 4.8

CC1=C(/C=C/C(C)=C/C=C/C(C)=C/C(=O)O)C(C)(C)CCC1 [all-trans-retinoic acid (ATRA), all-trans-retinoic acid]
Exposure risk (DART risk classification) ([4]; Dietary, <10,000 IU Retinol, oral): Low Risk
Exposure risk (DART risk classification) ([4]; Pharmaceutical, 80 mg/daily, oral): High Risk
Exposure risk (DART risk classification) ([4]; Pharmaceutical, 0.1% cream, dermal): Uncertain Risk
DART Hazard Call [6]: Toxic
dose above which gross external, soft tissue and skeletal alterations occurred ([14]; rats): > 2 mg/kg/day
dose above which gross external, soft tissue and skeletal alterations occurred [16]: > 0.7 mg/kg/day
BER [17]: < 1
dose at which gross external, soft tissue and skeletal alterations occurred [18]: 10 mg/kg/day
dose above which gross external, soft tissue and skeletal alterations occurred [19]: > 7 mg/kg/day
CDR fold difference to non-pregnant ([13]; female, human, in vivo): 0.77
CDR fold difference to pregnant ([13]; female, human, in vivo): 1.00
TKVF ([13]; female, human, in vivo): 1.47
CDR fold difference to pregnant ([13]; human, in vivo): 0.71
